These are literature values, as cited in US20080274188A1, “Oral Vehicle For Systemic Pharmaceuticals” (priority 2005, published 2008).

Read-outs that look alike come from different tables or passages of the source.

For this data set the following is noted: for Solubility water: words.

Turning to `CC(=O)Nc1ccc(O)cc1` [Acetaminophen], the Solubility water result runs as follows: (cold water) “Cold-v slight”; (hot water) “Hot-considerably more”.
Regarding `Cc1onc(-c2ccccc2Cl)c1C(=O)N[C@@H]1C(=O)N2[C@@H]1SC(C)(C)[C@@H]2C(=O)O` [Cloxacillin, Cloxacillin (Na monohydrate)], the Solubility water result (temperature not stated) was “soluble”.
For `COc1ccc2c3c1O[C@H]1[C@@H](O)C=C[C@H]4[C@@H](C2)N(C)CC[C@@]341` [Codeine phosphate], under “temperature not stated, 1 g in the stated ml”, the “Solubility water (ml of water for 1 g)” value was 1 g in 2.5 ml water.
Turning to `C1CNCCN1` [Piperazine], the Solubility water entry (temperature not stated) was “Freely soluble”.
